Measured values as given in the CheMixHub drug solubility set.

Assay: xn = mol fraction of the nth substance listed, in the solute-free solvent

CCOC(=O)OC1=C(c2cc(C)ccc2C)C(=O)NC12CCC(OC)CC2 (stereo unspecified) + CO + O
solubility (g/100 g solution)
Settings | 278.15 K | 283.15 K | 288.15 K | 293.15 K | 298.15 K | 303.15 K | 308.15 K | 313.15 K | 318.15 K
x2 = 0.2 | 0.00416 | 0.0064 | 0.0104 | 0.0162 | 0.0253 | 0.0409 | 0.0592 | 0.0833 | 0.132
x2 = 0.4 | 0.292 | 0.365 | 0.473 | 0.613 | 0.803 | 1.07 | 1.44 | 1.9 | 2.64
x2 = 0.6 | 1.47 | 1.82 | 2.22 | 2.8 | 3.56 | 4.5 | 5.89 | 7.65 | 9.83
x2 = 0.8 | 3.55 | 4.27 | 5.22 | 6.38 | 8.03 | 10.1 | 12.7 | 15.7 | 19.2

Nc1nc2ccc(OC(F)(F)F)cc2s1 + CCO + O
solubility (g/100 g solution)
Settings | 278.15 K | 283.15 K | 288.15 K | 293.15 K | 298.15 K | 303.15 K | 308.15 K | 313.15 K | 318.15 K | 323.15 K
x2 = 0.2068 | 16 | 19.7 | 23.8 | 26.5 | 32.5 | 38.3 | 43.3 | 47.4 | 51.7 | 55.5
x2 = 0.2812 | 31.4 | 35.5 | 39.9 | 43.9 | 48.1 | 52.1 | 56.1 | 59.6 | 62.5 | 64.8
x2 = 0.3697 | 56.3 | 58.7 | 60.7 | 63.2 | 65.5 | 67.8 | 69.7 | 70.9 | 72.7 | 74
x2 = 0.4772 | 50.7 | 53.3 | 55.4 | 58.1 | 60.6 | 63.6 | 66 | 68 | 69.9 | 71.4
x2 = 0.6099 | 53.2 | 55.1 | 57.4 | 59.7 | 61.7 | 63.6 | 65.3 | 67 | 68.6 | 69.9
x2 = 0.7786 | 52.6 | 54.4 | 57.2 | 59 | 61.3 | 63.1 | 64.9 | 66.7 | 68.2 | 70

NC(=O)NC1NC(=O)NC1=O (stereo unspecified) + OCCO + O
solubility (g/100 g solution)
Settings | 288.15 K | 293.15 K | 298.15 K | 303.15 K | 308.15 K | 313.15 K | 318.15 K | 323.15 K | 328.15 K | 333.15 K
x2 = 0.075 | 0.367 | 0.468 | 0.57 | 0.749 | 0.887 | 1.12 | 1.37 | 1.67 | 1.93 | 2.38
x2 = 0.177 | 0.387 | 0.478 | 0.581 | 0.732 | 0.858 | 1.02 | 1.24 | 1.47 | 1.75 | 2.09
x2 = 0.327 | 0.439 | 0.481 | 0.62 | 0.747 | 0.847 | 1 | 1.17 | 1.43 | 1.67 | 1.88
x2 = 0.564 | 0.406 | 0.49 | 0.601 | 0.725 | 0.819 | 0.962 | 1.1 | 1.29 | 1.44 | 1.7
x2 = 0.744 | 0.466 | 0.515 | 0.628 | 0.712 | 0.779 | 0.924 | 1.03 | 1.2 | 1.33 | 1.54
